Measurements reported in paper PMC10011573, “Development of novel broad-spectrum antimicrobial lipopeptides derived from plantaricin NC8 β” (Scientific Reports, 2023).
Where two headings read alike, the source gives them in different places. Non-standard residues stand in square brackets, D forms with d. Residues, ends and D or L forms follow the SMILES beside them. No end group written: not given here. *: point of attachment. Heptanoyl = CCCCCCC(=O)*; Pentanoyl = CCCCC(=O)*

Columns and labels:
[1] = system: E. coli (K-12 MG1655); type: cell-based; details: K-12, 20 h
Experimental: The broth microdilution method was used to determine minimal inhibitory concentration (MIC) and minimal bactericidal concentration (MBC), in accordance with the EUCAST standards for the broth microdilution method. Two-fold serial dilutions of the lipopeptides were used, and the final concentrations ranged from 0.19 to 100 µM. In brief, two-fold serial dilutions of the lipopeptides were performed in a 96-well plate in PBS, with a final volume of 100 µl per well, after which 100 µl of LB-broth media containing approximately 5 × 10^5 CFU/ml of bacteria was added to each well. The plate was then incubated for 20 h in 37 °C on a shaker (400 rpm). The effect of lipopeptide-antibiotic combinations was investigated by performing checkerboard assays. The assays were performed in accordance with the MIC and MBC tests conducted above, but with horizontal and longitudinal two-fold serial dilutions of the tested compounds. […] The fractional inhibitory concentration (FIC) and fractional bactericidal concentration (FBC) were calculated by the equation (MIC or MBC of peptide in combination/MIC or MBC of peptide alone) + (MIC or MBC of antibiotic in combination/MIC or MBC of antibiotic alone). Synergy was defined as FIC/FBC ≤ 0.5, additive when 0.5 < FIC/FBC ≤ 1, indifferent when 1 < FIC/FBC < 2 and antagonistic when FIC/FBC ≥ 2. All experiments were repeated at least three times.

[2] = system: human erythrocytes; test: Hemolytic activity; type: cell-based; details: 15% suspension in PBS, 1 h, 37 °C, absorbance 540 nm, highest tested concentration 100 µM
Experimental: The hemolytic activity of the lipopeptides was investigated by collecting blood from healthy volunteers in heparinized vacutainers. Briefly, the blood was centrifuged at 600 × g for 5 min and the erythrocyte pellet was washed three times in PBS. The cells were then suspended in PBS and added to 96-well plates (15% erythrocyte suspension/well), containing the lipopeptides with two-fold serial dilution. The plates were incubated for 1 h at 37 °C followed by centrifugation for 5 min at 900×g and absorbance measurement of the supernatants at 540 nm. Hemolytic activity (%) was calculated by subtracting the negative control from all values and normalization against the positive control (0.5% Triton X-100), that was set to 100%. All experiments, each in duplicate, were repeated three times.

[3] = system: S. aureus (ATCC 29213); type: cell-based; details: ATCC 29213, 20 h
[4] = system: K. pneumoniae; details: 20 h
[5] = system: P. aeruginosa; details: 20 h
[6] = system: S. aureus (ATCC 29213, MSSA); details: ATCC 29213, 20 h
[7] = system: E. faecium; details: 20 h
[8] = system: E. cloacae; details: 20 h
[9] = system: E. coli (K-12 MG1655)
[10] = system: A. baumannii; details: 20 h
[11] = Carboxyfluorescein release assay, bacterial liposome model; type: biochemical; details: 75:25 POPC:POPG liposomes, 25 µM lipid, 10 mM PBS pH 7.4, 10^–5–10^2 µM peptide, 60 min, fluorescence, Hill fit, n = 3; read-out: EC50 Bacterial (concentration that triggers 50% CF release)
Outline: (§1)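 CF-loaded extruded 0.1 µm unilamellar liposomes: bacterial POPC:POPG 75:25, mammalian POPC:POPS:Chol 65:5:30. Liposomes at 25 µM lipid in PBS pH 7.4 incubated with peptide (10^–5–10^2 µM; n = 3), fluorescence read every 2.5 min for 1 h. Release normalized to 1% Triton X-100; EC50 from Hill-1 fit.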

[12] = Carboxyfluorescein release assay, mammalian liposome model; type: biochemical; details: 65:5:30 POPC:POPS:Chol. liposomes, 25 µM lipid, 10 mM PBS pH 7.4, 10^–5–10^2 µM peptide, 60 min, fluorescence, Hill fit, n = 3; read-out: EC50 Mammalial (concentration that triggers 50% CF release)
Outline: as §1

[13] = Dynamic light scattering, critical aggregation concentration; type: physicochemical; details: DLS scattering intensity at 90°, 10 mM PBS pH 7.4, serial dilution 100 µM to 0.01 nM, 22 °C, average of 10 runs of 30 s; estimated
Experimental: Lipopeptide aggregation was evaluated on a ALV/CGS-8F Platform (ALV-GmbH, Langen, Germany) equipped with a […] He–Ne laser. Scattered light was collected at 90°. PBS (10 mM, pH 7.4) was chosen as buffer, and filtered with a 0.22 µm filter prior to use. The samples were prepared in a cylindrical glass cuvette immersed in refractive-index matching toluene. The peptides were serially diluted between 100 µM and 0.01 nM, sonicated for 1 min and incubated for 5 min at 22 °C and vortexed prior to measuring. The temperature was controlled throughout the experiment with the use of a circulating water bath. Data were analysed with ALV-Correlator (Version 3.0, ALV-GmbH, Langen, Germany) software, and the scattering intensity was obtained through an average of 10 consecutive 30 s runs.

[14] = Table 3, K-12 MG1655, broth microdilution, 50:50 PBS/LB-broth, 200 µL, 20 h, 37 °C

For `CCCCC(=O)N[C@H](CC(C)C)C(=O)NCC(=O)N[C@H](CC(C)C)C(=O)N[C@H](CCCCN)C(=O)N[C@H](CC(C)C)C(=O)N[C@H](CC(C)C)C(=O)N[C@H](Cc1c[nH]c2ccccc12)C(=O)N[C@H](CO)C(=O)N[C@H](C)C(=O)N[C@H](Cc1ccc(O)cc1)C(=O)N[C@H](CCCCN)C(=O)N[C@H](Cc1c[nH]cn1)C(=O)N[C@H](CCCNC(=N)N)C(=O)N[C@H](CCCCN)C(=O)N[C@@H](C(=O)N[C@H](CC(C)C)C(N)=O)[C@H](C)O` [D-6-C5-Leu] (Pentanoyl-[dL]G[dL][dK][dL][dL][dW][dS][dA][dY][dK][dH][dR][dK][dT][dL]-NH2), the “E. coli MBC, lipopeptide alone” value [1] was 3.1 µM, the “E. coli MIC, lipopeptide alone” value [1] was 3.1 µM and the “HC, hemolytic concentration at 5% hemolytic activity” value [2] was > 100 µM. The “S. aureus MBC, lipopeptide alone” value [3] was 3.1 µM, the “S. aureus MIC, lipopeptide alone” value [3] was 3.1 µM and the MBC [4] was 25 µM. The MIC [4] was 12.5 µM, the MBC [5] was 25 µM and the MIC [5] was 12.5 µM. The “S. aureus MBC” value [6] was 3.1 µM, the “S. aureus MIC” value [6] was 3.1 µM and the MBC [7] was 3.1 µM. The MIC [7] was 3.1 µM, the MBC [8] was 50 µM and the MIC [8] was 25 µM. The “E. coli MBC” value [9, 14] was 3.1 µM, the “E. coli MIC” value [9, 14] was 3.1 µM and the MBC [10] was 3.1 µM. It also gave an MIC [10] of 3.1 µM, an EC50 [11] of 130 nM and an EC50 [12] of 4080 nM.
With LGIKILWSAYKHRKTI-NH2 [L-6] the “S. aureus MBC” value [6] was > 100 µM, the “S. aureus MIC” value [6] was > 100 µM and the “E. coli MBC” value ([9]; K-12, 20 h) was > 100 µM. For the same compound, the “E. coli MIC” value ([9]; K-12, 20 h) was > 100 µM, the “critical aggregation concentration (CAC)” value [13] was 10 µM and the EC50 [11] was 150 nM. For the same compound, the EC50 [12] was > 100000 nM.
With `CCCCCCC(=O)N[C@@H](CC(C)C)C(=O)NCC(=O)N[C@H](C(=O)N[C@@H](CCCCN)C(=O)N[C@H](C(=O)N[C@@H](CC(C)C)C(=O)N[C@@H](Cc1c[nH]c2ccccc12)C(=O)N[C@@H](CO)C(=O)N[C@@H](C)C(=O)N[C@@H](Cc1ccc(O)cc1)C(=O)N[C@@H](CCCCN)C(=O)N[C@@H](Cc1c[nH]cn1)C(=O)N[C@@H](CCCNC(=N)N)C(=O)N[C@@H](CCCCN)C(=O)N[C@H](C(=O)N[C@H](C(N)=O)[C@@H](C)CC)[C@@H](C)O)[C@@H](C)CC)[C@@H](C)CC` [L-6-C7] (Heptanoyl-LGIKILWSAYKHRKTI-NH2) the “HC, hemolytic concentration at 5% hemolytic activity” value [2] was 80 µM, the “S. aureus MBC” value [6] was 3.1 µM and the “S. aureus MIC” value [6] was 3.1 µM. The “E. coli MBC” value [9, 14] was 6.2 µM, the “E. coli MIC” value [9, 14] was 6.2 µM and the “critical aggregation concentration (CAC)” value [13] was 0.8 µM. It also gave an EC50 [11] of 220 nM and an EC50 [12] of 1950 nM.
